# Reference: publication PMC5477230 (Nature chemical biology, 2016)
# Entries after “also recorded” stand apart in the source; their conditions may differ. Like-named read-outs stand apart in the source and are kept apart here. * marks the point of attachment. Cbz = O=C(OCc1ccccc1)*; CH2F = FC*
# Legend:
# [1] = molecular target: SCPEP1 (Homo sapiens, UniProt Q9HB40); experiment: EnPlex serine hydrolase selectivity profiling; format: biochemical; details: 10 μM; EnPlex and competitive ABPP
# [2] = system: caspase-1 knockout RAW 264.7 cells; experiment: Cell viability, caspase-1 knockout RAW 264.7; format: cell-based, mouse; details: for cell killing: caspase-1 knockout RAW 264.7
# [3] = system: GSDMD; experiment: GSDMD cleavage by immunoblotting; format: cell-based; details: THP-1 cells, 24 h
# [4] = system: wild-type mice; experiment: Cytokine stimulation in wild-type mice; format: in vivo; details: oral, Val-boroPro 100 μg/mouse, sitagliptin 1000 μg/mouse
# [5] = system: Casp1−/− knockout C57BL/6NJ mice; experiment: Cytokine stimulation in Casp1−/− knockout mice; format: in vivo; details: 100 μg/mouse, 6 h
# [6] = system: DPP9 knockout THP-1 cells; experiment: LDH cytotoxicity assay, DPP9 knockout THP-1; format: cell-based
# [7] = system: DPP8/9 double knockout THP-1 cells; experiment: LDH cytotoxicity assay, DPP8/9 double knockout THP-1; format: cell-based
# [8] = system: Caspase-1 knockout THP-1 cells; experiment: LDH cytotoxicity assay, caspase-1 knockout THP-1; format: cell-based
# [9] = system: ASC-knockout THP-1 cells; format: cell-based
# [10] = system: GSDMD knockout THP-1 cells; experiment: LDH cytotoxicity assay, GSDMD knockout THP-1; format: cell-based
# [11] = system: DPP4; details: cited from earlier work
# [12] = system: THP-1 macrophages; details: for LDH release: wild-type THP-1 cells; for blockade of Val-boroPro-induced pyroptosis: THP-1 macrophages, 50 μM, 30 min pre-treatment, 6 h
# [13] = system: DPP7; details: cited from earlier work
# [14] = system: J774 cells; experiment: LDH cytotoxicity assay, J774
# [15] = system: U937 cells; experiment: LDH cytotoxicity assay, U937
# [16] = system: HL-60 cells; experiment: LDH cytotoxicity assay, HL-60
# [17] = system: primary mouse bone marrow derived macrophages (mBMDMs); experiment: LDH cytotoxicity assay, mBMDMs
# [18] = system: primary human peripheral blood mononuclear cells (hPBMCs); experiment: LDH cytotoxicity assay, hPBMCs
# [19] = system: RAW 264.7 cells; experiment: LDH cytotoxicity assay, RAW 264.7; details: for LDH release: RAW 264.7; for effect on cumulative Val-boroPro-induced LDH release: RAW 264.7, 24 hours; for blockade of Val-boroPro-induced pyroptosis: RAW 264.7 macrophages, 50 μM, 30 min pre-treatment, 6 h
# [20] = system: THP-1 macrophages; experiment: IL-1β expression by immunoblotting; details: 10 μM
# [21] = system: control THP-1 cells; experiment: CellTiter-Glo cell viability, control THP-1; format: cell-based; details: read-out: IC50 cell viability (CellTiter-Glo)
# [22] = system: DPP8/9 knockout THP-1 cells; experiment: CellTiter-Glo cell viability, DPP8/9 knockout THP-1; format: cell-based; details: read-out: IC50 cell viability (CellTiter-Glo); DPP8/9 KO1 THP-1, 48 h
# [23] = system: CASP1 knockout THP-1 cells; experiment: CellTiter-Glo cell viability, CASP1 knockout THP-1; format: cell-based; details: CASP1 knockout THP-1, 48 h, compared to DMSO
# [24] = system: HT-1080 cells; experiment: CellTiter-Glo cell viability, HT-1080; format: cell-based; details: HT-1080, 48 h
# [25] = system: MCF7 cells; experiment: CellTiter-Glo cell viability, MCF7; format: cell-based; details: MCF7, 48 h
# [26] = system: DPP8; details: read-out: IC50 DPP8; cited from earlier work
# [27] = system: DPP9; details: read-out: IC50 DPP9; cited from earlier work
# [28] = system: U937 cells and monocyte-derived macrophages; details: 8 μM; cited from earlier work
# [29] = system: J774 cells; details: cited from earlier work
# [30] = system: rats; details: cited from earlier work
# Sequence of SCPEP1 (Q9HB40 27-452, species assumed): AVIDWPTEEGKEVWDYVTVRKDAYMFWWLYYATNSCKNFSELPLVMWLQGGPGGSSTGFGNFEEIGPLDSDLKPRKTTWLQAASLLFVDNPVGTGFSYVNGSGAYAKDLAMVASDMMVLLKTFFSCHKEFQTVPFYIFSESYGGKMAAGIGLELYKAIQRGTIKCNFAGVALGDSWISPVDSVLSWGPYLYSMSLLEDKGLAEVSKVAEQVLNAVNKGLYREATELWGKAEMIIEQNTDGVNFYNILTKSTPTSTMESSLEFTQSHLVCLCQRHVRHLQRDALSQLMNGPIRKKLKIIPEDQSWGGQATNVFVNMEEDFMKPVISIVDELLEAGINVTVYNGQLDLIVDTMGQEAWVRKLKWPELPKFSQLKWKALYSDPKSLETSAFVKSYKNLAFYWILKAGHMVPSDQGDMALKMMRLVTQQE
compound,measurement,setting,value
CC(C)[C@H](N)C(=O)N1CCC[C@H]1B(O)O [Val-boroPro],inhibition of SCPEP1 (previously unknown target),[1],inhibited
same,cell killing,[2],resistant
same,GSDMD cleavage,[3],significant cleavage of GSDMD
same,serum CXCL1/KC induction,[4],dramatically induces
same,serum G-CSF induction,[4],dramatically induces
same,serum CXCL1/KC increase,[5],no increase
same,serum G-CSF increase,[5],no increase
same,additional LDH release / cytotoxicity,[6],induce additional cytotoxicity
same,additional LDH increase,[7],no additional LDH increase
same,sensitivity of cells to compound (LDH),[8],resistant
same,cytotoxic response (LDH),[9],responded equivalently
same,onset of induced cell death,[10],significantly delayed
same,LDH release,[12],induced similar LDH release
same,inhibition of DPP7,"[13]; relative to DPP4, DPP8, DPP9",more weakly inhibit
same,LDH release,[14],released LDH
same,LDH release,[15],do not release LDH
same,LDH release,[16],released LDH
same,LDH release,[17],released LDH
same,LDH release,[18],released LDH
same,LDH release,[19],released LDH; also recorded: induced similar LDH release
same,increase of intracellular pro-IL-1β levels,[20],~ 2 fold
N#C[C@@H]1C[C@@H]2C[C@@H]2N1C(=O)[C@@H](N)C12CC3CC(CC(O)(C3)C1)C2 [saxagliptin],IC50,"[21]; Homo sapiens, THP-1, 48 h",2500 to 18700 nM
Ac-YVAD-CMK,effect on cumulative Val-boroPro-induced LDH release,"[12]; THP-1, over 24 hours",no impact
same,blockade of Val-boroPro-induced pyroptosis,[12],completely blocked
same,effect on cumulative Val-boroPro-induced LDH release,[19],no impact
same,blockade of Val-boroPro-induced pyroptosis,[19],completely blocked
1G244,IC50,"[21]; control THP-1, 48 h",2700 nM
same,IC50,[22],21.5 µM
same,cell death (CellTiter-Glo),[23],killed
same,cell killing (CellTiter-Glo),[24],kills
same,cell killing (CellTiter-Glo),[25],kills
same,cell killing,[2],kills
same,caspase-1-independent cell death,"[2]; mouse RAW 264.7 cells, 10 μM",small amounts of caspase-1-independent cell death
same,GSDMD cleavage,[3],significant cleavage of GSDMD
same,additional LDH release / cytotoxicity,"[6]; DPP9 knockout THP-1, Val-boroPro 2 μM, 1G244 10 μM, 24 h",induced additional LDH release
same,additional LDH increase,[7],no additional LDH increase
same,sensitivity of cells to compound (LDH),[8],resistant
same,inhibition of DPP4,[11],does not inhibit
same,LDH release,[12],induced similar LDH release
same,IC50,[26],14 nM
same,IC50,[27],53 nM
same,inhibition of DPP7,[13],does not inhibit
same,form of cell death induced,[28],induced a form of cell death that appeared to be apoptosis
same,cell death,[29],induces cell death
same,toxic effects after injection,[30]; 30 mg/kg,"startle reflex, convulsions and cyanosis"
same,concentrations achieved in animals,[30],> 10 µM
same,toxic effects after injection,[30]; ≥60 mg/kg,immediate death
same,LDH release,[19],induced similar LDH release
N#C[C@@H]1CCCN1C(=O)CNC12CC3CC(CC(O)(C3)C1)C2 [vildagliptin],IC50,"[21]; Homo sapiens, THP-1, 48 h",2500 to 18700 nM
Cbz-Val-Ala-Asp-CH2F,blockade of Val-boroPro-induced pyroptosis,[12],completely blocked
same,effect on cumulative Val-boroPro-induced LDH release,[19],only partially reduced
same,blockade of Val-boroPro-induced pyroptosis,[19],completely blocked
